Laboratory results published in patent US20070251020A1, “Fungicidal compositions and methods of using the same” (priority 2006, published 2007).

Tests used:
Assay type in all cases: cell-based
Aspergillus niger [1] = assay: Wet blue pieces dipped in active substance, exposed to airborne spores in petri-dish growth chambers; set-up: key to GROWTH Wk. 1 / GROWTH Wk. 2 / GROWTH Wk. 3 / GROWTH Wk. 4 / GROWTH Wk. 5 / GROWTH Wk. 6 / GROWTH Wk. 7: 0: no growth on surface; +: less than half of surface covered with mold; ++: about half of surface covered with mold; +++: about ¾ of surface covered with mold; ++++: the whole surface covered with mold; conditions: for performance against Aspergillus niger on wet blue compared with the controls: wet blue dipped in 0.5% or 0.25% (by wt) mixtures
Experimental: Sodium omadine was included among the substances tested, as a positive control. The test organism, Aspergillus niger, was grown on potato dextrose agar for 5-days in petri-dishes. The wet blue pieces were placed on top of pieces of bent glass rod, thereby preventing direct contact with the “lawn” of Aspergillus niger. Thus, exposure of the wet blue to Aspergillus niger was limited to airborne spores, simulating one of the most common modes of exposure experienced in practice. For each active substance and concentration studied, wet blue pieces were suspended both grain side up and flesh side up. A bottom half of a petri-dish was used as a cover to provide a growth chamber for each sample. These growth chambers were incubated at 25° C. and evaluated weekly to determine the degree of fungal infestation on the wet blue surfaces.

Aspergillus niger [2] = assay: Screening for anti-fungal activity in mineral-salts glucose medium, visual growth / no growth; set-up: key: −: no growth; +: slight growth; ++: moderate growth; +++: heavy growth; ++++: very heavy growth; conditions: 25° C.
Experimental: The pH of the medium was adjusted to 6 with 1N NaOH. The medium was distributed in 50 ml amounts into 250 ml flasks and autoclaved at 121° C. for 20 minutes. The test fungus, Aspergillus niger, was grown on potato dextrose agar for 7-10 days. A spore/hyphal suspension of the fungus was prepared by washing down the spores/hyphae from the slant with sterile saline into a bottle containing 30 ml sterile saline and shaken. The chemicals were added to the sterile mineral-salts medium in the desired concentrations, and each flask was inoculated with a suspension of the fungal suspension to give a final fungal count of approximately 1×10^6 cfu/ml. The inoculated samples were incubated at 25° C. and inspected visually for growth or no growth at 7 and 14 days.

Penicillium sp. = assay: Wet blue pieces dipped in active substance, mold exposure in petri-dishes, industrial isolate; set-up: key to GROWTH Wk. 1 / GROWTH Wk. 2 / GROWTH Wk. 3 / GROWTH Wk. 4 / GROWTH Wk. 5 / GROWTH Wk. 7 / GROWTH Wk. 8 / GROWTH Wk. 9: 0: no growth on surface; +: less than half of surface covered with mold; ++: about half of surface covered with mold; +++: about ¾ of surface covered with mold; ++++: the whole surface covered with mold
Experimental: One inch square pieces of wet blue that had not been previously treated with fungicide were dipped in either 0.5% or 0.25% (by wt) mixtures of each active substance in water. Sodium omadine was included among the substances tested, as a positive control. The test organism, Aspergillus niger, was grown on potato dextrose agar for 5-days in petri-dishes. The wet blue pieces were placed on top of pieces of bent glass rod, thereby preventing direct contact with the “lawn” of Aspergillus niger. Thus, exposure of the wet blue to Aspergillus niger was limited to airborne spores, simulating one of the most common modes of exposure experienced in practice. For each active substance and concentration studied, wet blue pieces were suspended both grain side up and flesh side up. A bottom half of a petri-dish was used as a cover to provide a growth chamber for each sample. These growth chambers were incubated at 25° C. and evaluated weekly to determine the degree of fungal infestation on the wet blue surfaces.
Some of the minimum risk fungicides identified above were further tested against an industrial isolate of Penicillium sp, as shown in Table 3. This particular “wild strain” of Penicillium was isolated from commercial wet blue that was seriously contaminated with mold. […] Once again, one inch square pieces of wet blue were dipped in mixtures of active substances in water—this time at 1% and 0.5% concentrations. The mold exposure was carried out in petri-dishes as in EXAMPLE 2, but with Penicillium sp. as the test organism.

SMILES: CCC(=O)OCCc1ccccc1 [2-Phenylethyl propionate]
- performance against Aspergillus niger on wet blue compared with the controls (Aspergillus niger [1]; petri-dishes): no better than the controls
- GROWTH 7-days (Aspergillus niger [2]; 1% by wt.): −
- GROWTH 14-days (Aspergillus niger [2]; 1% by wt.): −

SMILES: O=C(O)CC(O)(CC(=O)O)C(=O)O [Citric acid]
- GROWTH 7-days (Aspergillus niger [2]; 0.5% by wt.): −
- GROWTH 14-days (Aspergillus niger [2]; 0.5% by wt.): −
- GROWTH 7-days (Aspergillus niger [2]; 1% by wt.): −
- GROWTH 14-days (Aspergillus niger [2]; 1% by wt.): −

SMILES: C=CCc1ccc(O)c(OC)c1 [Eugenol]
- performance against Aspergillus niger on wet blue compared with the controls (Aspergillus niger [1]; petri-dishes): no better than the controls
- GROWTH 7-days (Aspergillus niger [2]; 0.5% by wt.): −
- GROWTH 14-days (Aspergillus niger [2]; 0.5% by wt.): −
- GROWTH 7-days (Aspergillus niger [2]; 1% by wt.): −
- GROWTH 14-days (Aspergillus niger [2]; 1% by wt.): −

SMILES: CC(C)=CCC/C(C)=C/CO [Geraniol]
- performance against Aspergillus niger on wet blue compared with the controls (Aspergillus niger [1]; petri-dishes): no better than the controls
- GROWTH 7-days (Aspergillus niger [2]; 0.5% by wt.): −
- GROWTH 14-days (Aspergillus niger [2]; 0.5% by wt.): −
- GROWTH 7-days (Aspergillus niger [2]; 1% by wt.): −
- GROWTH 14-days (Aspergillus niger [2]; 1% by wt.): −

SMILES: C/C=C/C=C/C(=O)[O-].[K+] [Potassium sorbate]
- GROWTH 7-days (Aspergillus niger [2]; 0.5% by wt.): −
- GROWTH 14-days (Aspergillus niger [2]; 0.5% by wt.): +++
- GROWTH 7-days (Aspergillus niger [2]; 1% by wt.): −
- GROWTH 14-days (Aspergillus niger [2]; 1% by wt.): −

SMILES: O=C([O-])c1ccccc1.[Na+] [Sodium benzoate]
- GROWTH 7-days (Aspergillus niger [2]; 0.5% by wt.): ++
- GROWTH 7-days (Aspergillus niger [2]; 1% by wt.): +

SMILES: CC(=O)c1c([O-])cc(C)oc1=O.[Na+] [Sodium dehydroacetate, reference compound]
- GROWTH 7-days (Aspergillus niger [2]; 0.5% by wt.): −
- GROWTH 14-days (Aspergillus niger [2]; 0.5% by wt.): −
- GROWTH 7-days (Aspergillus niger [2]; 1% by wt.): −
- GROWTH 14-days (Aspergillus niger [2]; 1% by wt.): −

SMILES: CCCCCCCCCCCCOS(=O)(=O)[O-].[Na+] [Sodium lauryl sulfate]
- GROWTH Wk. 1 (Aspergillus niger [1]; 0.25% (flesh)): 0
- GROWTH Wk. 2 (Aspergillus niger [1]; 0.25% (flesh)): 0
- GROWTH Wk. 3 (Aspergillus niger [1]; 0.25% (flesh)): 0
- GROWTH Wk. 4 (Aspergillus niger [1]; 0.25% (flesh)): 0
- GROWTH Wk. 5 (Aspergillus niger [1]; 0.25% (flesh)): 0
- GROWTH Wk. 6 (Aspergillus niger [1]; 0.25% (flesh)): 0
- GROWTH Wk. 7 (Aspergillus niger [1]; 0.25% (flesh)): ++
- GROWTH Wk. 1 (Aspergillus niger [1]; 0.25% (grain)): 0
- GROWTH Wk. 2 (Aspergillus niger [1]; 0.25% (grain)): 0
- GROWTH Wk. 3 (Aspergillus niger [1]; 0.25% (grain)): 0
- GROWTH Wk. 4 (Aspergillus niger [1]; 0.25% (grain)): 0
- GROWTH Wk. 5 (Aspergillus niger [1]; 0.25% (grain)): 0
- GROWTH Wk. 6 (Aspergillus niger [1]; 0.25% (grain)): 0
- GROWTH Wk. 7 (Aspergillus niger [1]; 0.25% (grain)): ++
- GROWTH Wk. 1 (Aspergillus niger [1]; 0.5% (flesh)): 0
- GROWTH Wk. 2 (Aspergillus niger [1]; 0.5% (flesh)): 0
- GROWTH Wk. 3 (Aspergillus niger [1]; 0.5% (flesh)): 0
- GROWTH Wk. 4 (Aspergillus niger [1]; 0.5% (flesh)): 0
- GROWTH Wk. 5 (Aspergillus niger [1]; 0.5% (flesh)): 0
- GROWTH Wk. 6 (Aspergillus niger [1]; 0.5% (flesh)): 0
- GROWTH Wk. 7 (Aspergillus niger [1]; 0.5% (flesh)): 0
- GROWTH Wk. 1 (Aspergillus niger [1]; 0.5% (grain)): 0
- GROWTH Wk. 2 (Aspergillus niger [1]; 0.5% (grain)): 0
- GROWTH Wk. 3 (Aspergillus niger [1]; 0.5% (grain)): 0
- GROWTH Wk. 4 (Aspergillus niger [1]; 0.5% (grain)): 0
- GROWTH Wk. 5 (Aspergillus niger [1]; 0.5% (grain)): 0
- GROWTH Wk. 6 (Aspergillus niger [1]; 0.5% (grain)): 0
- GROWTH Wk. 7 (Aspergillus niger [1]; 0.5% (grain)): +
- duration of protection of wet blue (Aspergillus niger [1]; at the concentration tested, petri-dishes): six to seven
- GROWTH 7-days (Aspergillus niger [2]; 0.5% by wt.): −
- GROWTH 14-days (Aspergillus niger [2]; 0.5% by wt.): −
- GROWTH 7-days (Aspergillus niger [2]; 1% by wt.): −
- GROWTH 14-days (Aspergillus niger [2]; 1% by wt.): −
- GROWTH Wk. 1 (Penicillium sp.; 0.5% (flesh)): 0
- GROWTH Wk. 2 (Penicillium sp.; 0.5% (flesh)): 0
- GROWTH Wk. 3 (Penicillium sp.; 0.5% (flesh)): 0
- GROWTH Wk. 4 (Penicillium sp.; 0.5% (flesh)): +
- GROWTH Wk. 5 (Penicillium sp.; 0.5% (flesh)): ++
- GROWTH Wk. 7 (Penicillium sp.; 0.5% (flesh)): ++++
- GROWTH Wk. 8 (Penicillium sp.; 0.5% (flesh)): ++++
- GROWTH Wk. 9 (Penicillium sp.; 0.5% (flesh)): ++++
- GROWTH Wk. 1 (Penicillium sp.; 0.5% (grain)): 0
- GROWTH Wk. 2 (Penicillium sp.; 0.5% (grain)): 0
- GROWTH Wk. 3 (Penicillium sp.; 0.5% (grain)): +
- GROWTH Wk. 4 (Penicillium sp.; 0.5% (grain)): ++++
- GROWTH Wk. 5 (Penicillium sp.; 0.5% (grain)): ++++
- GROWTH Wk. 7 (Penicillium sp.; 0.5% (grain)): ++++
- GROWTH Wk. 8 (Penicillium sp.; 0.5% (grain)): ++++
- GROWTH Wk. 9 (Penicillium sp.; 0.5% (grain)): ++++
- GROWTH Wk. 1 (Penicillium sp.; 1% (flesh)): 0
- GROWTH Wk. 2 (Penicillium sp.; 1% (flesh)): 0
- GROWTH Wk. 3 (Penicillium sp.; 1% (flesh)): 0
- GROWTH Wk. 4 (Penicillium sp.; 1% (flesh)): 0
- GROWTH Wk. 5 (Penicillium sp.; 1% (flesh)): +
- GROWTH Wk. 7 (Penicillium sp.; 1% (flesh)): ++++
- GROWTH Wk. 8 (Penicillium sp.; 1% (flesh)): ++++
- GROWTH Wk. 9 (Penicillium sp.; 1% (flesh)): ++++
- GROWTH Wk. 1 (Penicillium sp.; 1% (grain)): 0
- GROWTH Wk. 2 (Penicillium sp.; 1% (grain)): 0
- GROWTH Wk. 3 (Penicillium sp.; 1% (grain)): 0
- GROWTH Wk. 4 (Penicillium sp.; 1% (grain)): 0
- GROWTH Wk. 5 (Penicillium sp.; 1% (grain)): 0
- GROWTH Wk. 7 (Penicillium sp.; 1% (grain)): 0
- GROWTH Wk. 8 (Penicillium sp.; 1% (grain)): 0
- GROWTH Wk. 9 (Penicillium sp.; 1% (grain)): 0
- resistance of treated wet blue compared with unprotected controls (Penicillium sp.; wet blue dipped at 1% and 0.5%, Prosan 18 as positive control): substantially improved over the unprotected controls

SMILES: [Na+].[O-][n+]1ccccc1[S-] [Sodium omadine, reference compound]
- GROWTH Wk. 1 (Aspergillus niger [1]; 0.05% (flesh)): 0
- GROWTH Wk. 2 (Aspergillus niger [1]; 0.05% (flesh)): 0
- GROWTH Wk. 3 (Aspergillus niger [1]; 0.05% (flesh)): 0
- GROWTH Wk. 4 (Aspergillus niger [1]; 0.05% (flesh)): 0
- GROWTH Wk. 5 (Aspergillus niger [1]; 0.05% (flesh)): 0
- GROWTH Wk. 6 (Aspergillus niger [1]; 0.05% (flesh)): 0
- GROWTH Wk. 7 (Aspergillus niger [1]; 0.05% (flesh)): 0
- GROWTH Wk. 1 (Aspergillus niger [1]; 0.05% (grain)): 0
- GROWTH Wk. 2 (Aspergillus niger [1]; 0.05% (grain)): 0
- GROWTH Wk. 3 (Aspergillus niger [1]; 0.05% (grain)): 0
- GROWTH Wk. 4 (Aspergillus niger [1]; 0.05% (grain)): 0
- GROWTH Wk. 5 (Aspergillus niger [1]; 0.05% (grain)): 0
- GROWTH Wk. 6 (Aspergillus niger [1]; 0.05% (grain)): 0
- GROWTH Wk. 7 (Aspergillus niger [1]; 0.05% (grain)): 0

SMILES: O=C([O-])c1ccccc1O.[Na+] [Sodium salicylate, reference compound]
- GROWTH 7-days (Aspergillus niger [2]; 0.5% by wt.): ++++
- GROWTH 7-days (Aspergillus niger [2]; 1% by wt.): ++++
